# Assay results reported in PubChem BioAssay (NCI).
#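 Briefly, cells in 96-well plates were exposed to five compound concentrations for 48 h, and endpoints were estimated by linear interpolation. GI50 = concentration required for 50% inhibition of growth. The concentration for full growth arrest is given as TGI.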
# System: SN12K1 renal
# Experiment: growth of human tumour cells (NCI), 48 h
smiles,measurement,value
CCc1ccc([O-])c(C=NCCCN(C)CCCN=Cc2cc(C)ccc2[O-])c1.[Co+3].[N-]=[N+]=[N-],GI50,21.7 µg/mL
same,TGI,54.8 µg/mL
